Marks after values point to notes of the source that are not given here.
Assays:
AF24-28AC = assay: Antibiotic sensitivity of AF24-28AC, drug sensitive paper method; format: cell-based, Megamonas funiformis; conditions: for Diameter of inhibition zone: antibiotic susceptibility papers on AF24-28AC plates, 37° C., 48 hours; for Sensitivity of AF24-28AC to the antibiotic (resistant / sensitive): drug sensitive paper method
Procedure: The sensitivity of AF24-28AC to 20 common antibiotics was tested by the drug sensitive paper method. 100 μl of AF24-28AC bacterial solution cultured to the logarithmic phase was spread plated. Antibiotic susceptibility papers (purchased from Hangzhou Microbial Reagent Co. LTD) were affixed on the medium surface of plates, cultured at 37° C. for 48 hours, after which the size of inhibition zone was measured.

T2D mice model [1] = assay: T2D animal model (STZ plus high-fat feed), body weight; format: in vivo, C57bL/6 mice; conditions: gavage
Procedure: (§1) The T2D animal model is constructed by using C57bL/6 mice (purchased from Guangdong Medical Experimental Animal Center) at 8 weeks old and 20±2 g of body weight. The mice are housed in a specific pathogen free (SPF) environment and adaptively fed for 1 week, followed by grouping and modeling. The T2D animal model is induced by injection of streptozotocin (STZ) along with feeding high-fat feed, and the mice having a fasting blood glucose (FBG) reaching 10 mM/L can be used as a T2D mice model. Fifty mice selected for experiments are randomly divided into 5 groups. • Model group: the T2D mice model was administered with saline solution by gavage; • Bacterial agent group 1: the T2D mice model was administered with the DSM 19343 bacterial solution (1×10^8 cfu/m1) by gavage; • Bacterial agent group 2: the T2D mice model was administered with the AF24-28AC bacterial solution (1×10^8 cfu/m1) by gavage; • Bacterial agent group 3: the T2D mice model was administered with the JCM 14723 bacterial solution (1×10^8 cfu/m1) by gavage; • Metformin treatment group: the T2D mice model was treated with the positive drug metformin.
(§2) The experiment was carried out based on the different groups. After the construction of T2D mice model (i.e., FBG>10), the treatment was started and lasted for 2 months. The food intake amount and body weight of mice were recorded daily. Blood of mice was collected from the tail vein every week for detection of fasting blood glucose. The oral glucose tolerance test (OGTT) of mice was measured at week 4 of treatment and at the end of the experiment.

T2D mice model [2] = assay: T2D animal model, fasting blood glucose; format: in vivo, C57bL/6 mice; conditions: tail vein blood
Procedure: as §1, §2

T2D mice model [3] = assay: T2D animal model, oral glucose tolerance test (OGTT); format: in vivo, C57bL/6 mice
Procedure: as §1, §2

| Compound | Diameter of inhibition zone (AF24-28AC) [cm] | further results |
| --- | --- | --- |
| NCC[C@H](O)C(=O)N[C@@H]1C[C@H](N)[C@@H](O[C@H]2O[C@H](CN)[C@@H](O)[C@H](O)[C@H]2O)[C@H](O)[C@H]1O[C@H]1O[C@H](CO)[C@@H](O)[C@H](N)[C@H]1O [Amikacin] | 2.6 |  |
| CC1(C)S[C@@H]2[C@H](NC(=O)[C@H](N)c3ccccc3)C(=O)N2[C@H]1C(=O)O [Ampicillin] | 1.0 |  |
| CC1(C)S[C@@H]2[C@H](NC(=O)C(C(=O)O)c3ccccc3)C(=O)N2[C@H]1C(=O)O (some centres unmarked) [Carbenicillin] | 1.2 |  |
| CC1=C(C(=O)O)N2C(=O)[C@@H](NC(=O)[C@H](N)c3ccccc3)[C@H]2SC1 [Cefalexin] | 2.2 |  |
| Cc1nnc(SCC2=C(C(=O)O)N3C(=O)[C@@H](NC(=O)Cn4cnnn4)[C@H]3SC2)s1 [Cefazolin] | 4.0 |  |
| CCN1CCN(C(=O)N[C@@H](C(=O)N[C@@H]2C(=O)N3C(C(=O)O)=C(CSc4nnnn4C)CS[C@H]23)c2ccc(O)cc2)C(=O)C1=O [Cefoperazone] | 0.0 | Sensitivity of AF24-28AC to the antibiotic (resistant / sensitive) (AF24-28AC): resistant |
| CC1=C(C(=O)O)N2C(=O)[C@@H](NC(=O)[C@H](N)C3=CCC=CC3)[C@H]2SC1 [Cefradine] | 0.8 |  |
| CO/N=C(\C(=O)N[C@@H]1C(=O)N2C(C(=O)O)=C(CSc3nc(=O)c(=O)[nH]n3C)CS[C@H]12)c1csc(N)n1 [Ceftriaxone Sodium] | 1.0 |  |
| CO/N=C(\C(=O)N[C@@H]1C(=O)N2C(C(=O)O)=C(COC(N)=O)CS[C@H]12)c1ccco1 [Cefuroxime] | 3.8 |  |
| C[C@H]1c2cccc(O)c2C(=O)C2=C(O)[C@]3(O)C(=O)C(C(N)=O)=C(O)[C@@H](N(C)C)[C@@H]3[C@@H](O)[C@@H]21 [Doxycycline] | 4.0 |  |
| CC[C@H]1OC(=O)[C@H](C)[C@@H](O[C@H]2C[C@@](C)(OC)[C@@H](O)[C@H](C)O2)[C@H](C)[C@@H](O[C@@H]2O[C@H](C)C[C@H](N(C)C)[C@H]2O)[C@](C)(O)C[C@@H](C)C(=O)[C@H](C)[C@@H](O)[C@]1(C)O [Erythromycin] | 1.3 |  |
| CC(C)(O/N=C(\C(=O)N[C@@H]1C(=O)N2C(C(=O)[O-])=C(C[n+]3ccccc3)CS[C@H]12)c1csc(N)n1)C(=O)O [Fortum (Ceftazidime), Ceftazidime] | 2.0 |  |
| NC[C@H]1O[C@H](O[C@H]2[C@H](O)[C@@H](O[C@H]3O[C@H](CO)[C@@H](O)[C@H](N)[C@H]3O)[C@H](N)C[C@@H]2N)[C@H](O)[C@@H](O)[C@@H]1O [Kanamycin] | 1.8 |  |
| CN(C)C(=N)N=C(N)N [Metformin, metformin] |  | Weight change Week 1 (T2D mice model [1]; Week 1): 20.33 g; Weight change Week 3 (T2D mice model [1]; Week 3): 22.36 g; Weight change Week 5 (T2D mice model [1]; Week 5): 24.33 g; Weight change Week 7 (T2D mice model [1]; Week 7): 25.86 g; Weight change Week 9 (T2D mice model [1]; Week 9, *P<0.05 relative to model group): 26.53* g; Fasting blood glucose Week 1 (T2D mice model [2]; Week 1): 16.9 mmol/L; Fasting blood glucose Week 3 (T2D mice model [2]; Week 3): 16.0 mmol/L; Fasting blood glucose Week 5 (T2D mice model [2]; Week 5): 14.3 mmol/L; Fasting blood glucose Week 7 (T2D mice model [2]; Week 7): 11.6* mmol/L; Fasting blood glucose Week 9 (T2D mice model [2]; Week 9): 10.3** mmol/L; Glucose tolerance (OGTT) blood glucose 0 minute (T2D mice model [3]; 0 minute after glucose by gavage): 9.3 mmol/L; Glucose tolerance (OGTT) blood glucose 30 minutes (T2D mice model [3]; 30 minutes after glucose by gavage): 19.4 mmol/L; Glucose tolerance (OGTT) blood glucose 60 minutes (T2D mice model [3]; 60 minutes after glucose by gavage): 16.6 mmol/L; Glucose tolerance (OGTT) blood glucose 90 minutes (T2D mice model [3]; 90 minutes after glucose by gavage): 11.7* mmol/L; Glucose tolerance (OGTT) blood glucose 120 minutes (T2D mice model [3]; 120 minutes after glucose by gavage): 10.4 mmol/L |
| CN(C)c1ccc(O)c2c1C[C@H]1C[C@H]3[C@H](N(C)C)C(O)=C(C(N)=O)C(=O)[C@@]3(O)C(O)=C1C2=O [Minocin (Minocycline), Minocycline] | 4.0 |  |
| Cc1onc(-c2ccccc2)c1C(=O)N[C@@H]1C(=O)N2[C@@H]1SC(C)(C)[C@@H]2C(=O)O [Oxacillin] | 0.0 | Sensitivity of AF24-28AC to the antibiotic (resistant / sensitive) (AF24-28AC): resistant |
| CCN1CCN(C(=O)N[C@@H](C(=O)N[C@@H]2C(=O)N3[C@@H]2SC(C)(C)[C@@H]3C(=O)O)c2ccccc2)C(=O)C1=O [Piperacillin] | 1.2 |  |
| CN(C)[C@@H]1C(O)=C(C(N)=O)C(=O)[C@@]2(O)C(O)=C3C(=O)c4c(O)cccc4[C@@](C)(O)[C@H]3C[C@@H]12 [Tetracycline] | 4.2 |  |
| Gentamicin | 1.7 |  |
| Neomycin | 1.3 |  |
| Penicillin | 0.0 | Sensitivity of AF24-28AC to the antibiotic (resistant / sensitive) (AF24-28AC): resistant |
